# Experiments:
# [1] = conventional probes, short wavelength excitation light; cited from earlier work
# [2] = Changes with time in fluorescence intensity after addition of zinc ion; conditions: 5 μM compound, zinc ion 5 μM or 50 μM, 100 mM HEPES pH 7.5
# Experimental: Zinc ion (final concentration 5 μM or 50 μM) was added in 100 mM HEPES (pH 7.5) containing 5 μM Compound 6, Compound 12, or ACF-1 (a compound having a cyclic polyamine moiety described as Compound (20) in Example 1 in Japanese Patent Application No. (Hei) 11-40325) to measure fluorescence intensity. The fluorescence intensity was measured at the excitation wavelength of 491 nm and the fluorescence wavelength of 513 nm for Compound 6, the excitation wavelength of 492 nm and the fluorescence wavelength of 514 nm for Compound 12, and the excitation wavelength of 495 nm and the fluorescence wavelength of 515 nm for ACF-1. In the figure, the ordinate axis represents relative fluorescence intensity. […] Accordingly, the use of the compound according to the present invention enables very quick detection of zinc, and also enables the detection of rapid change in the concentration of zinc.
# [3] = Selectivity for zinc ions: fluorescence intensity in buffer containing various metal ions; conditions: 1 μM compound
# Experimental: Compound 6 obtained in Example 1 and Compound 12 obtained in Example 2 were used to evaluate selectivity for zinc ions. 5 μM of Compound 6 or Compound 12 was added in 100 mM HEPES buffer (pH 7.5) containing various metal ions (5 μM or 5 mM). The fluorescence intensity was measured at the excitation wavelength of 491 nm and the fluorescence wavelength of 513 nm for Compound 6, and the excitation wavelength of 492 nm and the fluorescence wavelength of 514 nm for Compound 12. The results are shown in FIG. 1 (Compound 6) and FIG. 2 (Compound 12). 1 μM of Compound 21 was added in 100 mM HEPES buffer (pH 7.5) containing various metal ions (1 μM or 5 mM), and the fluorescence intensity was measured at the excitation wavelength of 505 nm and the fluorescence wavelength of 522 nm.
# In the figures, the fluorescence intensities on the ordinate axis are shown as numerical values with addition of each metal ion relative to the fluorescence intensity without addition of metal ion which is taken as 1.
# [4] = Changes in fluorescence intensity with relation to pH changes; type: physicochemical; conditions: pH of around 7.4 (intracellular pH)
# Experimental: Changes in fluorescence intensity of Compound 12, Compound 21, and zinc complexes thereof were investigated with relation to pH changes. The fluorescence intensity was measured at the excitation wavelength of 492 nm and the fluorescence wavelength of 514 nm for Compound 12, and the excitation wavelength of 505 nm and the fluorescence wavelength of 522 nm for Compound 21.
# Buffers used are as follows.
# 100 mM Cl2CHCOOH—Cl2CHCOONa buffer (pH 2.0)
# 100 mM ClCH2COOH—ClCH2COONa buffer (pH 3.0)
# 100 mM CHES buffer (pH 8.5)
smiles,measurement,setting,value
CCOC(=O)COc1cc(NS(=O)(=O)c2ccc(C)cc2)c2nc(C)ccc2c1 [Zinquin],excitation wavelength,[1],368 nm
CN1CCN(C)CCN(c2ccc(-c3c4ccc(=O)cc-4oc4cc(O)ccc34)cc2)CCN(C)CC1 [ACF-1],increase of fluorescence intensity with time after zinc ion addition,[2],not instantly increased
COc1cc(NS(=O)(=O)c2ccc(C)cc2)c2ncccc2c1 [TSQ],excitation wavelength,[1],367 nm
O=C1C=C2Oc3cc(O)c(Cl)cc3C(c3ccc(NCCN(Cc4ccccn4)Cc4ccccn4)cc3C(=O)O)C2C=C1Cl (centres unmarked) [Compound 21],selectivity for zinc,"[3]; 100 mM HEPES buffer pH 7.5, various metal ions 1 μM or 5 mM",high selectivity
same,"effect of sodium, potassium, calcium, magnesium on the increase in fluorescence intensity caused by zinc",[3]; HEPES pH 7.5,did not affect
same,"increase in fluorescence intensity on addition of sodium, potassium, calcium and magnesium","[3]; metal ions at high concentration (5 mM), HEPES pH 7.5",almost no increase
same,stability of fluorescence intensity to pH changes,[4],more stable than Compound 12
CN(C)c1cccc2c(S(=O)(=O)NCCN3CCNCCNCCNCC3)cccc12 [Dansylaminoethylcyclen],excitation wavelength,[1],323 nm

# From patent US7074823B2, “Fluorescent probe for zinc” (Daiichi Pure Chemical Co., Ltd., priority 2000, dated 2006)
